Experimental data from ChEMBL document CHEMBL4024719, “Recent progress in the identification of selective butyrylcholinesterase inhibitors for Alzheimer's disease” (Eur J Med Chem, 2017).

Experiments:
Acetylcholinesterase [1] = target: T1, Acetylcholinesterase (Bos taurus, UniProt P23795); experiment: Inhibition of fetal bovine serum AChE using acetylthiocholine iodide as substrate
T1 sequence (P23795 whole entry): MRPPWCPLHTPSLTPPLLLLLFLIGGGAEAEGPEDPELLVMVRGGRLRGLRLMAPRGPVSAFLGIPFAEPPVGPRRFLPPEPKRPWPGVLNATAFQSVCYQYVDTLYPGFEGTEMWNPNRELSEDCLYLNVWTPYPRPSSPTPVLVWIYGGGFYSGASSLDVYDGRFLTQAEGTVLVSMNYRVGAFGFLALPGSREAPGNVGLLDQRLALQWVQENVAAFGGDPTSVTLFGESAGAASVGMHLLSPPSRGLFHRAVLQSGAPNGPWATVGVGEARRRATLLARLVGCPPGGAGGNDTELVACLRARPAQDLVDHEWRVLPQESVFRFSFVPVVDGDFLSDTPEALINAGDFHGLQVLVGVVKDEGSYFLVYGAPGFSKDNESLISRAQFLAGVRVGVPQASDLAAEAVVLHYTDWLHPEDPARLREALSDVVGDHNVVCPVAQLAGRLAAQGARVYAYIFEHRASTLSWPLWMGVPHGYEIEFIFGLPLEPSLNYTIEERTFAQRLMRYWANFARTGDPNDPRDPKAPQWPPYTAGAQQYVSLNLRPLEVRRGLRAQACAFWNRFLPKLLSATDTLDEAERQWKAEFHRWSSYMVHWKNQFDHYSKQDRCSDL

Cholinesterase [2] = target: T2, Cholinesterase (Equus caballus, UniProt P81908); experiment: Inhibition of equine serum BChE using butyrylthiocholine iodide as substrate
Cholinesterase [3] = target: T2, Cholinesterase; experiment: Inhibition of equine serum BuChE using s-butyrylthiocholine iodide as substrate pretreated for 6 mins followed by substrate addition measured at 60 secs interval for 180 secs by Ellman's method
[4] = target: Acetylcholinesterase (Electrophorus electricus) (UniProt O42275); experiment: Inhibition of electric eel AChE-induced human amyloid beta (1 to 40 residues) at 100 uM by thiofalvin-T fluorescence assay relative to control
Acetylcholinesterase [5] = target: T3, Acetylcholinesterase (Electrophorus electricus, UniProt O42275); experiment: Inhibition of electric eel AChE using acetylthiocholine iodide as substrate pretreated for 6 mins followed by substrate measured at 60 secs interval for 180 secs by Ellman's method
[6] = Selectivity ratio of IC50 for electric eel AChE to IC50 for equine serum BChE
Cholinesterase [7] = target: T2, Cholinesterase; experiment: Inhibition of equine serum BChE using butyrylthiocholine iodide as substrate measured at 12 secs interval for 10 mins by Ellman's method
Acetylcholinesterase [8] = target: T3, Acetylcholinesterase; experiment: Inhibition of electric eel AChE using acetylthiocholine iodide as substrate measured at 12 secs interval for 10 mins by Ellman's method
[9] = target: Amyloid-beta precursor protein (Homo sapiens) (UniProt P05067); experiment: Inhibition of HFIP-pretreated amyloid beta (1 to 42) (unknown origin) self-induced aggregation at 50 uM after 24 hrs by thioflavin-T fluorescence assay relative to control
[10] = Cytotoxicity against human T67 cells assessed as cell viability at 50 uM after 24 hrs by resazurin dye based spectrofluorimetric method relative to control; conditions: read-out: Activity
[11] = Cytotoxicity against human T67 cells assessed as cell viability at 10 uM after 24 hrs by resazurin dye based spectrofluorimetric method relative to control; conditions: read-out: Activity
Cholinesterase [12] = target: T4, Cholinesterase (Homo sapiens, UniProt P06276); experiment: Inhibition of human serum BuChE using butyrylthiocholine iodide as substrate pretreated for 20 mins followed by substrate addition by DTNB reagent based spectrophotometric method
Cholinesterase [13] = target: T4, Cholinesterase; experiment: Inhibition of human BuChE
Cholinesterase [14] = target: T4, Cholinesterase; experiment: Inhibition of human […] BuChE using s-butyrylthiocholine as substrate pretreated for 30 mins followed by substrate addition after 25 mins by spectrophotometric method
Acetylcholinesterase [15] = target: Acetylcholinesterase (Homo sapiens, UniProt P22303); experiment: Inhibition of human […] AChE using acetyl-(beta-methyl)thiocholine as substrate pretreated for 30 mins followed by substrate addition after 25 mins by spectrophotometric method
Cholinesterase [16] = target: T4, Cholinesterase; experiment: Inhibition of human plasma BuChE using butyrylthiocholine iodine as substrate pretreated for 10 mins followed by substrate addition measured for 5 mins by Ellman's method
Cholinesterase [17] = target: T4, Cholinesterase; experiment: Inhibition of BuChE (unknown origin)
Rattus norvegicus [18] = experiment: In-vivo inhibition of BuChE in Harlan-Wistar rat brain assessed as increase in acetylcholine level at 1.25 mg/kg, ip by microdialysis method relative to control; assay type: functional
Rattus norvegicus [19] = experiment: In-vivo inhibition of BuChE in Harlan-Wistar rat brain assessed as increase in acetylcholine level at 2.5 mg/kg, ip by microdialysis method relative to control; assay type: functional
Homo sapiens = species: Homo sapiens; experiment: Selectivity ratio of IC50 for human erythrocytes AChE to IC50 for human serum BuChE
[20] = target: Amyloid-beta precursor protein (Homo sapiens) (UniProt P05067); experiment: Inhibition of amyloid beta (1 to 42) (unknown origin) self-aggregation at 25 uM incubated for 30 mins measured every 5 mins for 14 hrs by thioflavin T fluorescence assay relative to control
[21] = Cytotoxicity against human SH-SY5Y cells assessed as cell viability at 25 uM after 24 hrs by MTT assay relative to control; assay type: cell-based; conditions: read-out: Activity
Cholinesterase [22] = target: T2, Cholinesterase; experiment: Inhibition of equine serum BuChE using butyrylthiocholine iodide as substrate pretreated for 10 mins followed by substrate addition by DTNB reagent based spectrophotometric method

T3 sequence (O42275 whole entry): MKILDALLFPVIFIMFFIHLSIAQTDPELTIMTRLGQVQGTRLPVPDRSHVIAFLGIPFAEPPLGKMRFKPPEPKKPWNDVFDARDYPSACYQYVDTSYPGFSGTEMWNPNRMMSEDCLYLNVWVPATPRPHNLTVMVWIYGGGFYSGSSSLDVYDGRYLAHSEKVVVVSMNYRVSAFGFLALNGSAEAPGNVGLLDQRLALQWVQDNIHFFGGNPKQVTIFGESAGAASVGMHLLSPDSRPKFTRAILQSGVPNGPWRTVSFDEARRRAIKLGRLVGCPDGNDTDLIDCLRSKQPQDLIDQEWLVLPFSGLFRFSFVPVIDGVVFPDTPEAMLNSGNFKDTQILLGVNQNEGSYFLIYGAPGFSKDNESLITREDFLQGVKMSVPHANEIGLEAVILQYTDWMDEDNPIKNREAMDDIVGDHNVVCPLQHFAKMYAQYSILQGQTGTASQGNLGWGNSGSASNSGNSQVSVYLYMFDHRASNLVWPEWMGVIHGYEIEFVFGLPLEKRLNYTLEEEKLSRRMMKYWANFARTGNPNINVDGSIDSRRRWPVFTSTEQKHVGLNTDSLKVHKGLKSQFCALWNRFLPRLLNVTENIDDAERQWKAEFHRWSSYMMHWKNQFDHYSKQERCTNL
T4 sequence (P06276 whole entry): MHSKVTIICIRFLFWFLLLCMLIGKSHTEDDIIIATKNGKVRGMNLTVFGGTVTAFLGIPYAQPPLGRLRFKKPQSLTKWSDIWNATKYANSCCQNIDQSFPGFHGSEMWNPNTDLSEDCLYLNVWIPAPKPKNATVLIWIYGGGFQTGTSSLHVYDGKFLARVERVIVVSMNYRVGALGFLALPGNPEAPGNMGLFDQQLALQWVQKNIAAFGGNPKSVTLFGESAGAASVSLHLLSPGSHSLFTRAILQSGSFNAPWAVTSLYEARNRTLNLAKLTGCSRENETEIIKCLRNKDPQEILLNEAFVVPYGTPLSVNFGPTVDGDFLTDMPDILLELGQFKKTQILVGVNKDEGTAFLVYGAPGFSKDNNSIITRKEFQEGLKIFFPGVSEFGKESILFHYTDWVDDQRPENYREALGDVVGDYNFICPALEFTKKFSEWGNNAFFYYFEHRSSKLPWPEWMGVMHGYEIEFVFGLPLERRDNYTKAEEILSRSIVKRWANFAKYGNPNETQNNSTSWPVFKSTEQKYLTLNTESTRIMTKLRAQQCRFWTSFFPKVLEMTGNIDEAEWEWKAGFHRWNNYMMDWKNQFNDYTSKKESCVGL
T2 sequence (P81908 whole entry): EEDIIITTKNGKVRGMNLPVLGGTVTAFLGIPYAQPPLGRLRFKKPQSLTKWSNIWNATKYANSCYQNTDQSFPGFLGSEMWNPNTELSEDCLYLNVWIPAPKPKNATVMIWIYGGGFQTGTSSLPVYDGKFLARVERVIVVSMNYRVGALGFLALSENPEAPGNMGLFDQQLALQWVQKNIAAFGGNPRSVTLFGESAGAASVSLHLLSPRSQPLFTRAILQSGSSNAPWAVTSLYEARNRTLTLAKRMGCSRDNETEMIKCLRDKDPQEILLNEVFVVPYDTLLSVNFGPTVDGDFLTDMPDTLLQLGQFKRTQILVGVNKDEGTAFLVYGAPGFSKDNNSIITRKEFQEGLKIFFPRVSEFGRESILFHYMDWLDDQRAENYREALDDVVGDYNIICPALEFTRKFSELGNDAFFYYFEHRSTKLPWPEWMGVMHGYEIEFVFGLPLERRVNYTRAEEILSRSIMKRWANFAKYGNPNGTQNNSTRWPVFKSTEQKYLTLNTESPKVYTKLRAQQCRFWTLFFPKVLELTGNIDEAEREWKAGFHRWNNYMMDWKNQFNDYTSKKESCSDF
Sequence of Amyloid-beta precursor protein (Homo sapiens) (P05067 whole entry): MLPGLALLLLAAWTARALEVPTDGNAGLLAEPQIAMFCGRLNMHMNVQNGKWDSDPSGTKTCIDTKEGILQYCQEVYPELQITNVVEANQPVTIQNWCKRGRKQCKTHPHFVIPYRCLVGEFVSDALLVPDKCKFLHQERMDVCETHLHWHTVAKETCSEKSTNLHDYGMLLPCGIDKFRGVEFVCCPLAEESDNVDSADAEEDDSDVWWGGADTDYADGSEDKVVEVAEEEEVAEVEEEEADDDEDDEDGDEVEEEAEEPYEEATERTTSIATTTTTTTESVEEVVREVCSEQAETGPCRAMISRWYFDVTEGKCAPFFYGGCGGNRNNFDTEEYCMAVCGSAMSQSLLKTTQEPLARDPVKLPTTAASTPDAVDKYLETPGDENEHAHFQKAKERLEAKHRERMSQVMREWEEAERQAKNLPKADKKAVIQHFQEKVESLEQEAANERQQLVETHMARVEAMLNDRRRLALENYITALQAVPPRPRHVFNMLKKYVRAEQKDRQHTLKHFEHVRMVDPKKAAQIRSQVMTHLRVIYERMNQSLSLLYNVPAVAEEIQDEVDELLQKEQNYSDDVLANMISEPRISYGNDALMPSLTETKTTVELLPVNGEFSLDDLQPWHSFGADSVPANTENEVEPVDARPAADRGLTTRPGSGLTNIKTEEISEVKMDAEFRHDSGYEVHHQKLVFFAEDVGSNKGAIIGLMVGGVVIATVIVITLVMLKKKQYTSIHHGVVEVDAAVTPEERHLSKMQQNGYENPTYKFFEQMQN
Sequence of Acetylcholinesterase (Homo sapiens, UniProt P22303) (P22303 whole entry): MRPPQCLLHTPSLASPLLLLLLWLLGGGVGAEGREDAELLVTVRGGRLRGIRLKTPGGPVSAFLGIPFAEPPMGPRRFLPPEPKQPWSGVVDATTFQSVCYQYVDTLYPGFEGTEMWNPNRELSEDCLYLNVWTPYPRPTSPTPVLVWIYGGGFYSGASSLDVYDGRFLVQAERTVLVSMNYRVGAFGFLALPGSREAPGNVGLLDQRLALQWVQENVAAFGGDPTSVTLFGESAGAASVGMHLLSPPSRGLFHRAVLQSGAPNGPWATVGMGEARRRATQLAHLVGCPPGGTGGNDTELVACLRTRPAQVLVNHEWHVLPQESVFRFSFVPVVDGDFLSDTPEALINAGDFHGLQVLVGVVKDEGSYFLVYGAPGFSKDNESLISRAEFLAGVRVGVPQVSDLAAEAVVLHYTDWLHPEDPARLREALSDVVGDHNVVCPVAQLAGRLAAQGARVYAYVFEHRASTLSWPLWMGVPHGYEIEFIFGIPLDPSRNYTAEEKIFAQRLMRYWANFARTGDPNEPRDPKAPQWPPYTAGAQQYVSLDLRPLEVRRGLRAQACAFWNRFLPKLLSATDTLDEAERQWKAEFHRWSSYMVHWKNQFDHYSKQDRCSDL
Sequence of Acetylcholinesterase (Electrophorus electricus) (O42275 24-633 limits assumed): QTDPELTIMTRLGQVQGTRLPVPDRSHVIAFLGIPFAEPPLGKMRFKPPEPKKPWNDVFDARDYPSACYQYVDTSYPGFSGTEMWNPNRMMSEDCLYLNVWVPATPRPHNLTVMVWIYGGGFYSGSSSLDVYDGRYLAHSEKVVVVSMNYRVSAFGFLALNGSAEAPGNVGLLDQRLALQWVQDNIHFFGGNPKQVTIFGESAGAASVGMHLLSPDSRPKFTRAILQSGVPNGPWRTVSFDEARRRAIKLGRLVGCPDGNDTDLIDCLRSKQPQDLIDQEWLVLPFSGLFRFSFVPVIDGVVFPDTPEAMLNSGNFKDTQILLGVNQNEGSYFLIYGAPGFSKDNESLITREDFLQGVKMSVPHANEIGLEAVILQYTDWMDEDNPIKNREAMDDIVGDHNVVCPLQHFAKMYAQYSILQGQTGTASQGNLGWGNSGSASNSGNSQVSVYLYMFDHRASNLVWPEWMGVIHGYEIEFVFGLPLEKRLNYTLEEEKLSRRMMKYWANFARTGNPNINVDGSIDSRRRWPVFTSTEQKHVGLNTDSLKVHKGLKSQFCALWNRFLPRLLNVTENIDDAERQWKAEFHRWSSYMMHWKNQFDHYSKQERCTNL

## c1ccc2c(NCCCCCCCSc3c4c(nc5ccccc35)CCCC4)c3c(nc2c1)CCCC3
Acetylcholinesterase [1]
  IC50: 0.34 µM
Cholinesterase [2]
  IC50: 0.035 µM

## O=C(NCCCCCCNc1c2c(nc3ccccc13)CCCCC2)c1cc(O)c2c(c1)C(=O)c1cccc(O)c1C2=O
Cholinesterase [3]
  IC50: 0.011 µM
[4]
  inhibition: 64.8%
Acetylcholinesterase [5]
  IC50: 0.13 µM
[6]
  Ratio IC50: 11

## Oc1ccccc1/C=C/c1cc(O)c(F)c(O)c1
Cholinesterase [7]
  IC50: 10 µM
[6]
  Ratio IC50: 96
Acetylcholinesterase [8]
  IC50: 960 µM

## COc1ccccc1CN1CCN(Cc2ccc3cccnc3c2O)CC1
[9]
  inhibition: 44.2%
[10]
  viability at 24 h, 50 µM: 81%
[11]
  viability at 24 h, 10 µM: > 90%
Cholinesterase [12]
  IC50: 5.71 µM

## COc1ccc(Cn2cc(CNc3c4c(nc5ccccc35)CCCC4)nn2)cc1
Cholinesterase [13]
  IC50: 0.055 µM

## CC(C)c1ccc(NC(=O)Oc2ccc3c(c2)[C@]2(C)CCC(C)[C@@H]2C3C)cc1 (stereo partly drawn)
Cholinesterase [14]
  IC50: 0.05 µM
Acetylcholinesterase [15]
  IC50: 0.76 µM

## c1ccc2c(SCCCCCCCSc3c4c(nc5ccccc35)CCCC4)c3c(nc2c1)CCCC3
Acetylcholinesterase [1]
  IC50: > 10 µM
Cholinesterase [2]
  IC50: 0.38 µM

## COc1ccc(N[C@H]2CCC[C@@H](OC(=O)N(C)C)C2)cc1
Cholinesterase [16]
  IC50: 110 µM

## Oc1ccc(-c2cnc3ccccc3n2)cc1
Cholinesterase [17]
  IC50: 7.7 µM

## CC(C)c1ccc(NC(=O)Oc2ccc3c(c2)[C@]2(C)CCN(CCc4ccccc4)[C@@H]2N3C)cc1
Rattus norvegicus [18]
  inhibition in vivo at 1.25 mg/kg: 180%
Rattus norvegicus [19]
  inhibition in vivo at 2.5 mg/kg: 290%

## Oc1ccc(/C=C/c2cc(O)cc(O)c2)cc1 [RESVERATROL]
Cholinesterase [7]
  IC50: 400 µM
Acetylcholinesterase [8]
  IC50: > 1000 µM

## COc1ccc(CNc2c3c(nc4ccccc24)CCCC3)cc1OC
Homo sapiens
  Ratio IC50: 110
[20]
  inhibition: 40%
[21]
  viability at 24 h, 25 µM: 58.9%

## CC(=O)N(CCCNc1c2c(nc3ccccc13)CCCC2)CCNc1c2c(nc3ccccc13)CCCC2
Acetylcholinesterase [1]
  IC50: 1.5 µM
Cholinesterase [2]
  IC50: 0.002 µM

## CC(C(=O)NCCCCCCCCNc1c2c(nc3ccccc13)CCCC2)c1ccc(-c2ccccc2)c(F)c1 (stereo not drawn)
[6]
  Ratio IC50: 16.4

## COc1ccc(N[C@@H]2CCC[C@@H](OC(=O)N(C)C)C2)cc1
Cholinesterase [16]
  IC50: 110 µM

## c1ccc(CNc2c3c(nc4ccccc24)CCCC3)nc1
Homo sapiens
  Ratio IC50: 957

## CCN1CCc2c(c3cc(F)ccc3n2CCC(=O)N2c3ccccc3Sc3ccccc32)C1
Cholinesterase [22]
  IC50: 0.39 µM
